Read-outs that look alike come from different tables or passages of the source.

This test deals with Human DDB1 (Homo sapiens (Human), UniProt Q16531). As to the kind of experiment: Surface plasmon resonance (SPR) binding assay to immobilized His-DDB1. As to conditions: SPR. As for the experimental part: The binding affinities of heterobifunctional compounds to DDB1 were determined by SPR assay. Purified His-DDB1 proteins were immobilized on a CM5 sensor chip, and a dose range of compound solutions were injected in multi-cycle kinetic format. Data were fit to steady state model and gave equivalent dissociation constants (KD).
Protein Expression and Purification. Human DDB1 (UniPro: Q16531) coding sequences were cloned into pFastBacHTB vector and were expressed in High5 cells using Bac-to-Bac baculovirus expression system (Thermo Fisher Scientific). […] DDB1 proteins were obtained from supernatant of cell lysates and purified through sequential application of Ni affinity (Ni-NTA column. Bio-Rad), and size-exclusion (Superdex 200 16/600GL column, GE Healthcare) column chromatography.
Surface plasmon resonance (SPR) binding assay. All SPR studies were performed on a Biacore X100 plus or T200 instrument (GE Healthcare). Immobilization of purified His-DDB1 was carried out at 25° C. using a CM5 sensor chip. The surface was pre-equilibrated in HBS-EP running buffer (10 mM HEPES, pH7.4, 150 mM NaCl, 3 mM EDTA, 0.05% P20), then activated with EDC/NHS. His-DDB1 proteins were immobilized by amine coupling to a density of 11,000-13,000 resonance units (RUs) on flow cell FC2, whereas flow cell FC1 was used as reference. Both DDB1 immobilized and reference surfaces were deactivated with 1M ethanolamine.
All interaction experiments were performed at 25° C. […] Compound Solutions were injected individually in multi-cycle kinetic format without regeneration (flow rate […], association time 120 s, dissociation time 120 s). Sensorgrams from reference surfaces and blank injections were subtracted from the raw data (double-referencing) and the data was solvent-corrected prior to analysis. All data were fit to steady state affinity model using Biacore Evaluation Software and gave equivalent dissociation constants (KD).
A general note: Surface plasmon resonance follows binding to a sensor surface in real time, without labels.

The mark [1] stands for this setting: steady state affinity model, 25° C., read-out: Binding (DDB1 binder activities, Kd).
Setting [2] is: DDB1 binding moieties with linkers and/or target protein binding moiety, read-out: Binding (Kd).

Sequence of Human DDB1 (Q16531 whole entry): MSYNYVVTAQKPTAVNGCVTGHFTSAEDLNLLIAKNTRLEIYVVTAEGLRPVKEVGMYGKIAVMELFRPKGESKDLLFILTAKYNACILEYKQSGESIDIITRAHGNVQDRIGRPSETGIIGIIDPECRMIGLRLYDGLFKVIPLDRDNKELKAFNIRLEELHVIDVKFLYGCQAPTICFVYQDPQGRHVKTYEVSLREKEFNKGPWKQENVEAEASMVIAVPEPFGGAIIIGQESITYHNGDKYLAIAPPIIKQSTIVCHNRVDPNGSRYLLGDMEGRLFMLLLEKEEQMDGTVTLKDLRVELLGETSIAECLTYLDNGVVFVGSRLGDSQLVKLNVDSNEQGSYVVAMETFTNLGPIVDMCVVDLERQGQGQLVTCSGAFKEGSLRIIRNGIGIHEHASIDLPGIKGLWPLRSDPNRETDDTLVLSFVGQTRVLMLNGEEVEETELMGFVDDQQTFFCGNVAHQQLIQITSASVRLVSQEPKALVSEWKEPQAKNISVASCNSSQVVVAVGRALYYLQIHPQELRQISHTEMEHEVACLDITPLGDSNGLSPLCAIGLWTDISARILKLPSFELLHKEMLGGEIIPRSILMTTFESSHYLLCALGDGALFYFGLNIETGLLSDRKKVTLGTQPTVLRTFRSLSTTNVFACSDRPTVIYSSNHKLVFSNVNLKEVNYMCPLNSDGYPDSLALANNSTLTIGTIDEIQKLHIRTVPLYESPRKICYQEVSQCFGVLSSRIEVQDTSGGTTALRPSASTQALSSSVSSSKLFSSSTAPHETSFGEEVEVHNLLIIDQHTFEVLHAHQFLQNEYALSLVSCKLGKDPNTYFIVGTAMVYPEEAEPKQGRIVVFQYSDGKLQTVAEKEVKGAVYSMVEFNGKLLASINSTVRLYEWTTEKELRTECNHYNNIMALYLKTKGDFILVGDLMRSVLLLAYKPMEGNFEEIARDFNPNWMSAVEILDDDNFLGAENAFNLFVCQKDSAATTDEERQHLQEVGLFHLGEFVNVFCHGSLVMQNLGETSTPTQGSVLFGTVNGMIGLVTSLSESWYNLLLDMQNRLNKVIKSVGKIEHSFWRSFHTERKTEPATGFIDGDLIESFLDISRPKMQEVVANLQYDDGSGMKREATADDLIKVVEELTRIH

Broadly, the Kd is the equilibrium constant for the complex coming apart. Take `O=C(Nc1ncc(Cl)s1)c1ccccc1O` [B-10]: the Kd under setting [1] lay in the range of 20 to 100 µM.
Take `CC(=O)Nc1cc(NCCOCCOCCOCCN)ccc1C(=O)Nc1nc(C)c([N+](=O)[O-])s1` [BL-8, 2-Acetamido-4-((2-(2-(2-(2-aminoethoxy)ethoxy)ethoxy)ethyl)amino)-N-(4-methyl-5-nitrothiazol-2-yl)benzamide]: the dissociation constant Kd under setting [2] was in the range of 20 to 100 µM.
Take `CCCC(=O)Nc1cccc(OC(=O)CCC)c1C(=O)Nc1ncc([N+](=O)[O-])s1` [B-25, 3-Butyramido-2-((5-nitrothiazol-2-yl)carbamoyl)phenyl butyrate]: under setting [1], the equilibrium dissociation constant (Kd) fell in the range of 20 to 100 µM.
The same measure, in the same setting: to `CCCNC(=O)c1cccc(C(=O)Nc2ncc([N+](=O)[O-])s2)c1OC(C)=O` [B-11, 2-((5-Nitrothiazol-2-yl)carbamoyl)-6-(propylcarbamoyl)phenyl acetate] belongs 20 to 100 µM.
The same measure, in the same setting: then `CCc1ccc(C(=O)Nc2ncc([N+](=O)[O-])s2)c(C)c1` [B-158, 4-Ethyl-2-methyl-N-(5-nitrothiazol-2-yl)benzamide], with 20 to 100 µM; and `CC(=O)Nc1ccccc1C(=O)Nc1ncc(C(F)(F)F)s1` [B-38, 2-acetamido-N-(5-(trifluoromethyl)thiazol-2-yl)benzamide], with below 20 µM; and `CC(=O)Nc1ccccc1C(=O)Nc1nc(C)c([N+](=O)[O-])s1` [B-27, 2-Acetamido-N-(4-methyl-5-nitrothiazol-2-yl)benzamide], with 20 to 100 µM.
Still for that read-out and setting: then `CC(=O)Nc1ccccc1C(=O)Nc1ncc(C#N)s1` [B-39, 2-acetamido-N-(5-cyanothiazol-2-yl)benzamide], with 20 to 100 µM.
In the case of `Nc1nc(N2CCOCC2)nc2c1CCN(Cc1cccc3cccnc13)C2` [B-136, 2-morpholino-7-(quinolin-8-ylmethyl)-5,6,7,8-tetrahydropyrido[3,4-d]pyrimidin-4-amine], the Kd under setting [1] lay within 20 to 100 µM.
`CC(=O)Nc1cc(NCCOCCOCCNC(=O)CN2CCN(c3ccc(Nc4ncc5c(C)c(C(C)=O)c(=O)n(C6CCCC6)c5n4)nc3)CC2)ccc1C(=O)Nc1nc(C)c([N+](=O)[O-])s1` [D-45, 2-Acetamido-4-((2-(2-(2-(2-(4-(6-((6-acetyl-8-cyclopentyl-5-methyl-7-oxo-7,8-dihydropyrido[2,3-d]pyrimidin-2-yl)amino)pyridin-3-yl)piperazin-1-yl)acetamido)ethoxy)ethoxy)ethyl)amino)-N-(4-methyl-5-nitrothiazol-2-yl)benzamide]: under setting [2], the Kd was below 20 µM.
Consider `CCCC(=O)Nc1ccc(C(=O)Nc2ncc([N+](=O)[O-])s2)c(OC(C)=O)c1` [B-21, 5-Butyramido-2-((5-nitrothiazol-2-yl)carbamoyl)phenyl acetate], for which the Kd under setting [1] was above 100 µM.
Consider `CNS(=O)(=O)c1ccccc1C(=O)Nc1ncc([N+](=O)[O-])s1` [B-81, 2-(N-Methylsulfamoyl)-N-(5-nitrothiazol-2-yl)benzamide], for which the Kd under setting [1] is 20 to 100 µM.
The same measure, in the same setting: to `CC(=O)Nc1ccccc1C(=O)Nc1ncc(C)s1` [B-42, 2-Acetamido-N-(5-methylthiazol-2-yl)benzamide] belongs 20 to 100 µM.
On the same count and under the same terms, to `CC(=O)Nc1ccccc1C(=O)Nc1ncc(-c2ccccc2)s1` [B-45, 2-acetamido-N-(5-phenylthiazol-2-yl)benzamide] belongs below 20 µM; to `CNC(=O)c1ccccc1C(=O)Nc1ncc([N+](=O)[O-])s1` [B-5, N^1-Methyl-N^2-(5-nitrothiazol-2-yl)phthalamide], above 100 µM.
Same read-out and setting: then `CC(=O)Oc1cccc(C)c1C(=O)Nc1ncc([N+](=O)[O-])s1` [B-170, 3-Methyl-2-((5-nitrothiazol-2-yl)carbamoyl)phenyl acetate], with above 100 µM.
Regarding `O=C(Nc1ncc([N+](=O)[O-])s1)c1ccccc1` [B-3, N-(5-Nitrothiazol-2-yl)benzamide], under setting [1], the Kd lay in the range of 20 to 100 µM.
On to `CC(=O)Nc1cc(NCCOCCOCCOCCN)ccc1C(=O)Nc1ncc([N+](=O)[O-])s1` [BL-9, 2-Acetamido-4-((2-(2-(2-(2-aminoethoxy)ethoxy)ethoxy)ethyl)amino)-N-(5-nitrothiazol-2-yl)benzamide], for which the Kd under setting [2] is below 20 µM.
With `CCNc1cccc(C)c1C(=O)Nc1ncc([N+](=O)[O-])s1` [B-169, 2-(Ethylamino)-6-methyl-N-(5-nitrothiazol-2-yl)benzamide], the Kd under setting [1] was in the range of 20 to 100 µM.
For `CC(=O)Nc1ccccc1C(=O)Nc1ncc([N+](=O)[O-])s1` [B-4, 2-Acetamido-N-(5-nitrothiazol-2-yl)benzamide], under setting [1], the dissociation constant (Kd) was below 20 µM.
On the same count and under the same terms, then `O=C(Nc1ncc([N+](=O)[O-])s1)c1ccccc1-c1ccccc1` [B-86, N-(5-Nitrothiazol-2-yl)-[1,1′-biphenyl]-2-carboxamide], with below 20 µM.
Consider `CC(=O)Oc1cc(NC2CCOCC2)ccc1C(=O)Nc1ncc([N+](=O)[O-])s1` [B-96, 2-((5-Nitrothiazol-2-yl)carbamoyl)-5-((tetrahydro-2H-pyran-4-yl)amino)phenyl acetate], for which the Kd under setting [1] was in the range of 20 to 100 µM.
For the compound `CC(=O)Nc1ccccc1C(=O)Nc1ccccn1` [B-123, 2-Acetamido-N-(pyridin-2-yl)benzamide], the Kd under setting [1] was below 20 µM.
The same measure, in the same setting: to `CC(=O)Nc1ccccc1C(=O)Nc1ncc(Br)s1` [B-37, 2-Acetamido-N-(5-bromothiazol-2-yl)benzamide] belongs above 100 µM; to `c1ncc(Nc2nccc(C3CCCCN3)n2)cn1` (centres unmarked) [B-137, 4-(piperidin-2-yl)-N-(pyrimidin-5-yl)pyrimidin-2-amine], 20 to 100 µM.
For `O=C(O)CCc1ccccc1C(=O)Nc1ncc([N+](=O)[O-])s1` [B-88, 3-(2-((5-Nitrothiazol-2-yl)carbamoyl)phenyl)propanoic acid], the Kd under setting [1] fell in the range of 20 to 100 µM.
As for `Cc1cc(N2CCN(C)CC2)ccc1C(=O)Nc1ncc([N+](=O)[O-])s1` [B-163, 2-Methyl-4-(4-methylpiperazin-1-yl)-N-(5-nitrothiazol-2-yl)benzamide], under setting [1], the Kd was above 100 µM.
On to `CC(=O)Nc1ccccc1C(=O)Nc1ncc(Cl)s1` [B-35, 2-Acetamido-N-(5-chlorothiazol-2-yl)benzamide], for which the Kd under setting [1] lay in the range of 20 to 100 µM.
As for `O=C(Nc1ccccc1C(=O)Nc1ncc([N+](=O)[O-])s1)c1ccccc1` [B-63, 2-Benzamido-N-(5-nitrothiazol-2-yl)benzamide], the Kd under setting [1] is above 100 µM.
For `CC(C)C(=O)NCCC1CN(Cc2cccc3[nH]ccc23)Cc2ccnn21` (centres unmarked) [B-142, N-(2-(5-((1H-indol-4-yl)methyl)-4,5,6,7-tetrahydropyrazolo[1,5-a]pyrazin-7-yl)ethyl)isobutyramide], the equilibrium dissociation constant (Kd) under setting [1] lay in the range of 20 to 100 µM.
Still for that read-out and setting: then `CCCCNc1ccc(C(=O)N(C)c2ncc([N+](=O)[O-])s2)c(OCC)c1` [B-107, 4-(Butylamino)-2-ethoxy-N-methyl-N-(5-nitrothiazol-2-yl)benzamide], with 20 to 100 µM.
As for `O=C(Nc1ncc([N+](=O)[O-])s1)c1ccccc1C(F)(F)F` [B-89, N-(5-Nitrothiazol-2-yl)-2-(trifluoromethyl)benzamide], the Kd under setting [1] fell in the range of 20 to 100 µM.
Still for that read-out and setting: then `CCOc1cc(NC2CCOC2)ccc1C(=O)Nc1ncc([N+](=O)[O-])s1` (centres unmarked) [B-97, 2-Ethoxy-N-(5-nitrothiazol-2-yl)-4-((tetrahydrofuran-3-yl)amino)benzamide], with above 100 µM; and `CCCCNc1ccc(C(=O)Nc2nc(C3CC3)c([N+](=O)[O-])s2)c(-c2ccccc2)c1` [B-115, 5-(Butylamino)-N-(4-cyclopropyl-5-nitrothiazol-2-yl)-[1,1′-biphenyl]-2-carboxamide], with above 100 µM; and `CC(=O)Nc1ccccc1C(=O)Nc1ncccn1` [B-56, 2-acetamido-N-(pyrimidin-2-yl)benzamide], with above 100 µM.
Take `CCCCNc1ccc(C(=O)Nc2ncc([N+](=O)[O-])s2)c(OC(C)=O)c1` [B-17, 5-(Butylamino)-2-((5-nitrothiazol-2-yl)carbamoyl)phenyl acetate]: the Kd under setting [1] is below 20 µM.
For the compound `CC(=O)Nc1cc(NCCOCCOCCOCCNC(=O)CN2CCN(c3ccc(Nc4ncc5c(C)c(C(C)=O)c(=O)n(C6CCCC6)c5n4)nc3)CC2)ccc1C(=O)Nc1nc(C)c([N+](=O)[O-])s1` [D-46, 2-Acetamido-4-((1-(4-(6-((6-acetyl-8-cyclopentyl-5-methyl-7-oxo-7,8-dihydropyrido[2,3-d]pyrimidin-2-yl)amino)pyridin-3-yl)piperazin-1-yl)-2-oxo-6,9,12-trioxa-3-azatetradecan-14-yl)amino)-N-(4-methyl-5-nitrothiazol-2-yl)benzamide], the Kd under setting [2] is below 20 µM.
On to `CC(=O)Nc1cc(NCCCCCCCCCCNC(=O)C[C@@H]2N=C(c3ccc(Cl)cc3)c3c(sc(C)c3C)-n3c(C)nnc32)ccc1C(=O)Nc1nc(C)c([N+](=O)[O-])s1` [D-31, (S)-2-Acetamido-4-((10-(2-(4-(4-chlorophenyl)-2,3,9-trimethyl-6H-thieno[3,2-f][1,2,4]triazolo[4,3-a][1,4]diazepin-6-yl)acetamido)decyl)amino)-N-(4-methyl-5-nitrothiazol-2-yl)benzamide], for which, under setting [2], the equilibrium dissociation constant (Kd) was 20 to 100 µM.

(Values after US20240066136A1, “MODIFIED PROTEINS AND PROTEIN DEGRADERS” (Cullgen (Shanghai), Inc., priority 2020, published 2024).)
